Reference: patent US20080254439A1, “Plant Extract and Use Thereof as a Cryoprotective Agent” (priority 2005, published 2008)

What was measured:
isolated rat hepatocytes = assay: Viability of suspensions of rat hepatocytes after freezing, calcein/PI test by flow cytometry; assay type: cell-based; conditions: 7 days of freezing; 1.5×10^6 cells/ml; 20 mg protein/extract or 15% DMSO in WME; FIG. 1
Protocol: Hepatocytes were isolated from male Sprague-Dawley rats (120-180 g), obtained from Charles River Canada (Saint-Constant, QC), in a two-step collagenase digestion technique (13; 14). […] Cell viability was evaluated by flow cytometry (FACScan™, Becton Dickinson, Oakville, ON) with 2 μM PI (16).
Cryopreservation of isolated hepatocytes. Immediately after isolation, the hepatocyte suspension was added to a mixture of ice-cold WME medium supplemented with 10% FBS and non-acclimated (NA) or CA wheat protein extracts (WPEs) in cold cryovials. […] The tubes containing cells were then frozen at a cooling rate of 1° C./min in a controlled freezing container (Nalgene, Rochester, N.Y.) to −80° C. for one day, and then transferred to liquid nitrogen.
Viability assays. After freeze/thaw cycles, hepatocyte suspensions were stained with the fluorescent probes 4 μM calcein and 2 μM PI in WME medium for 5 minutes. The samples were analyzed by flow cytometry (excitation at 488 nm) using a Becton Dickinson FACScan™. The number of live cells expressing green fluorescence of calcein and the number of dead cells expressing red fluorescence of PI were determined with Cell Quest™ software (Becton Dickinson, Oakville, ON).

rat hepatocytes [1] = assay: Viability of seeded thawed hepatocytes by LDH release; assay type: cell-based; conditions: after 24 h in culture; cryopreserved 7 days; FIG. 2
rat hepatocytes [2] = assay: Plating efficiency by LDH activity; assay type: cell-based; conditions: culture period 3 hours
Protocol: Thawing of cryopreserved hepatocytes. The frozen hepatocytes were thawed quickly by gentle agitation in a 37° C. water bath. Viability assays were performed on the hepatocyte suspension. For adherence and metabolic assays, the hepatocyte suspension was diluted 10-fold by addition of cold WME medium, immediately after thawing. […] After centrifugation (4° C., 50 g, 2 min), hepatocytes were suspended in 10 ml of WME medium. Hepatocytes were washed twice as above, then suspended at 3.5×10^5/ml in WME and cultured in tissue culture plates in WME medium supplemented with insulin and gentamicin in a humidified atmosphere of 5% CO2 and 95% air at 37° C. After 3 h, the medium was changed and cells were incubated overnight in L-15 medium supplemented with insulin and gentamicin. Plating efficiency. Plating efficiency was determined by measuring the LDH activity in cells prior to seeding and in 3 and 24 h-old cultures. Plating efficiency was defined as the LDH activity in 24 h-old cultures divided by the LDH activity in pre-culture cells.

rat hepatocytes [3] = assay: Adherence and cellular morphology by confocal microscopy; assay type: cell-based; conditions: 24 h after seeding, FIG. 3
Protocol: Adherence and cellular morphology. Adherence and cellular morphology were evaluated by confocal microscopy. For the confocal microscopy observations, tissue culture plates coated with collagen were used. All analyses were carried out using the confocal microscope MRC1024 from BioRad (Microscience, Cambridge, Mass.) equipped with an argon laser (excitation at 488 nm) combined with an inverted microscope Eclipse Model TE 3000 (Nikon, Montreal, QC) with objectives of 40× Hoffman.

rat hepatocytes [4] = assay: Albumin secretion by sandwich ELISA; assay type: cell-based; conditions: after 4 days in culture; FIG. 4A
Protocol: Determination of albumin secretion. Albumin secretion from hepatocytes was quantified every 24 h, until 96 h, in different hepatocyte culture media by the sandwich enzyme-linked immunosorbent assay (ELISA) according to Uotila et al. (19), with minor modifications (20). Briefly, 96-well plates (Nunc, Napierville, Ill.) were coated with anti-rat albumin rabbit antiserum (1 μg/ml). The plates were incubated for 30 min at room temperature (RT), then at 4° C. overnight, washed with phosphate buffered saline (PBS), blocked for 30 min at RT with 5% FBS in PBS, and then rewashed with PBS. Serial dilutions of sample and albumin standard were added (200 μl/well). The plates were incubated for III at RT and washed with PBS supplemented with 0.05% Tween-20 (PBS-T). Thereafter, the secondary antibody (peroxidase-conjugated anti-rat albumin; 2 μg/ml) was added and the plates were incubated for 1 h at RT. After 3 washings with PBS-T, the plates were incubated with the substrate o-phenylendiamine (OPND) (0.1 M NaH2PO4, 1 mg/ml OPND, 0.4 μl/ml H2O2) for 30 min at RT in the dark. The reaction was stopped with 4 M H2SO4. Albumin concentrations were determined at 550 nm using a standard curve ranging from 0 to 250 ng/dl of rat albumin using an ELISA reader ([sequence]luor Plus™, Tecan, Calif.).

rat hepatocytes [5] = assay: Ammonium detoxification to urea (urea determination); assay type: cell-based; conditions: after 4 days in culture; FIG. 4B
Protocol: Urea determination. To evaluate the hepatocyte-mediated biotransformation of ammonia to urea, seeded hepatocytes were exposed to L-15 culture medium containing 10 mM NH4Cl. Samples of media were collected at the beginning and after 24 h intervals of exposure to ammonia, during 3 days. Urea concentration in the samples was measured calorimetrically using the urea nitrogen reagent set (BioTron Diagnostics, Hemet, Calif.) and an ELISA reader at 540 nm. Concentrations of urea were determined using a standard curve ranging from 0 to 45 mg/dl of urea. The results are presented as μg urea/10^6 cells.

CYP1A1 = assay: EROD assay after 24 h induction with benzo-a-pyrene in cryopreserved hepatocytes; assay type: cell-based, rat; conditions: 48 h after seeding, FIG. 5A
Protocol: (§1) Enzymatic activity and protein expression of cytochrome P450 isoforms. CYP1A1 and 2B enzymatic activities were measured in hepatocyte cultures induced with benzo-a-pyrene (10 μM). Cells were washed 2 times with PBS and the substrates EROD (8 μM) or PROD (17 μM) (λexc: 530 nm; λem: 585 nm) were added to the culture dishes and incubated for 1 h. The supernatant (300 μl) was mixed with 200 μl of ETOH and the activity in 200 μl of the mixture was measured using an ELISA reader at 585 nm. Enzymatic activity was determined using a standard curve ranging from 0 to 200 μM of resorufin.

CYP2B = assay: PROD assay after 24 h induction with benzo-a-pyrene in cryopreserved hepatocytes; assay type: cell-based, rat; conditions: 48 h after seeding, FIG. 5A
Protocol: as §1

Relative activity of P450 CYP1A1 compared to fresh hepatocytes (CYP1A1): decreased slightly | Relative activity of P450 CYP2B compared to fresh hepatocytes (CYP2B): decreased slightly
SMILES: C[S+](C)[O-] [DMSO, dimethyl sulfoxide]
Viability of rat hepatocytes after freezing (isolated rat hepatocytes): 62.5% | Viability (LDH) of thawed hepatocytes in culture (rat hepatocytes [1]): 60.2% | Plating efficiency (rat hepatocytes [2]): 64.9 ± 1.7% | Cell-to-cell contacts (rat hepatocytes [3]): no cell-cell contacts were detected | Albumin secretory activity maintained (rat hepatocytes [4]): 48% | Initial detoxification activity maintained (urea production) (rat hepatocytes [5]): 16%
